Measured values published in ChEMBL document CHEMBL6096697, “Structure-Guided Discovery of Novel N4-(Substituted Thiazol-2-yl)-N2-(4-Substituted phenyl)pyrimidine-2,4-Diamines as Potent CDK2 and CDK9 Dual Inhibitors with High Oral Bioavailability” (J Med Chem, 2025).
Activity calls are given as the source filed them. The calls are words filed in the database; no cut-off is given here.

Experiments:
[1] = test system: HCT-116; experiment: Induction of apoptosis in human HCT-116 cells assessed as increase in p53 level upto 0.8 uM incubated for 24 hrs by Western blot analysis; assay type: functional, cell-based
[2] = test system: HeLa; experiment: Induction of apoptosis in human HeLa cells assessed as necrotic cells at 3.6 uM incubated for 24 hrs by PI staining based flow cytometry (reference value: 25.5 %); assay type: functional
[3] = test system: U-87 MG; experiment: Antiproliferative activity against human U-87 MG cells assessed as cell growth inhibition incubated for 48 hrs by MTT assay; assay type: functional, cell-based, U-87MG ATCC
[4] = test system: HeLa; experiment: Induction of apoptosis in human HeLa cells assessed as late apoptotic cells at 3.6 uM incubated for 24 hrs by PI staining based flow cytometry (reference value: 3.85 %); assay type: functional
[5] = test system: HCT-116; experiment: Induction of apoptosis in human HCT-116 cells assessed as viable cells at 0.4 uM incubated for 24 hrs by PI staining based flow cytometry (reference value: 79.4 %); assay type: functional; conditions: read-out: Activity
[6] = test system: MV4-11; experiment: Antiproliferative activity against human MV4-11 cells assessed as cell growth inhibition incubated for 48 hrs by MTT assay; assay type: functional, cell-based; conditions: MV4-11, 48 h
[7] = target: Cyclin-dependent kinase 2/cyclin A (Homo sapiens, UniProt P24941); experiment: Inhibition of CDK2/cyclin A (unknown origin) using […] incubated for 40 mins in presence of ATP by Kinase-Glo assay; assay type: protein-complex assay
[8] = test system: HeLa; experiment: Induction of apoptosis in human HeLa cells assessed as early apoptotic cells at 0.9 uM incubated for 24 hrs by PI staining based flow cytometry (reference value: 0.8 %); assay type: functional
[9] = test system: HeLa; experiment: Induction of apoptosis in human HeLa cells assessed as total apoptotic cells at 3.6 uM incubated for 24 hrs by PI staining based flow cytometry (reference value: 4.65 %); assay type: functional
[10] = test system: HCT-116; experiment: Induction of cell cycle arrest at G2/M phase in human HCT-116 cells assessed as decrease in p-Cdc2 level incubated for 48 hrs by Western blot analysis; assay type: functional, cell-based; conditions: dose <= 0.8 µM
[11] = test system: HeLa; experiment: Induction of cell cycle arrest at G2/M phase in human HeLa cells assessed as decrease in cyclin B1 level incubated for 48 hrs by Western blot analysis; assay type: functional, cell-based; conditions: dose <= 3.6 µM
[12] = AUC (0 to t) in Sprague-Dawley rat at 2 mg/kg, iv measured for 36 hrs by MRM analysis; assay type: ADME, organism-based; conditions: in vivo
[13] = test system: HCT-116; experiment: Induction of apoptosis in human HCT-116 cells assessed as necrotic cells at 0.4 uM incubated for 24 hrs by PI staining based flow cytometry (reference value: 18.9 %); assay type: functional
[14] = test system: A2780; experiment: Antiproliferative activity against human A2780 cells assessed as cell growth inhibition incubated for 48 hrs by MTT assay; assay type: functional, cell-based; conditions: A2780, 48 h
[15] = Antiproliferative activity against HEK293 cells assessed as cell growth inhibition incubated for 48 hrs by MTT assay; assay type: toxicity, cell-based; conditions: human
[16] = target: Cyclin-dependent kinase 9 (Homo sapiens) (UniProt P50750); experiment: Inhibition of CDK9 in human HCT-116 cells assessed as reduction in Rpb1 phosphorylation at Ser2/5 incubated for 24 hr s by Western blot analysis; assay type: cell-based; conditions: dose <= 0.8 µM
Sequence of Cyclin-dependent kinase 9 (Homo sapiens) (P50750 whole entry): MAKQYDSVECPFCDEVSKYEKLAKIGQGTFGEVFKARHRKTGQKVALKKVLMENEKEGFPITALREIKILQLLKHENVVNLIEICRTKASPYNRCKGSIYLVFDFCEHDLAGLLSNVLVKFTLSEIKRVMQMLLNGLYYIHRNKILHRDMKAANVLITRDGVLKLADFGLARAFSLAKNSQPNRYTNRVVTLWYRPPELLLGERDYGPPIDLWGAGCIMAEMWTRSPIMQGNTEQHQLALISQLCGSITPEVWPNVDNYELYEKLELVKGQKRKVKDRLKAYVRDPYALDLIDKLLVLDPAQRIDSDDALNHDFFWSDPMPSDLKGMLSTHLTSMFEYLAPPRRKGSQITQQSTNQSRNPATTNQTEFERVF

[17] = test system: HeLa; experiment: Induction of cell cycle arrest in human HeLa cells assessed as accumulation at S phase at 3.6 uM incubated for 24 hrs by PI staining based flow cytometry (reference value: 17.84 +/- 1.89 %); assay type: functional
[18] = test system: HeLa; experiment: Induction of cell cycle arrest in human HeLa cells assessed as accumulation at S phase at 1.8 uM incubated for 24 hrs by PI staining based flow cytometry (reference value: 17.84 +/- 1.89 %); assay type: functional
[19] = test system: A549; experiment: Antiproliferative activity against human A549 cells assessed as cell growth inhibition incubated for 48 hrs by MTT assay; assay type: functional, cell-based; conditions: A549, 48 h
[20] = Inhibition of CDK6/cyclin D (unknown origin) using […] incubated for 40 mins in presence of ATP by Kinase-Glo assay; design: species or system Homo sapiens
[21] = test system: HeLa; experiment: Induction of cell cycle arrest in human HeLa cells assessed as accumulation at G2/M phase at 1.8 uM incubated for 24 hrs by PI staining based flow cytometry (reference value: 24.6 +/- 1.11 %); assay type: functional
[22] = test system: HeLa; experiment: Induction of cell cycle arrest in human HeLa cells assessed as accumulation at G2/M phase at 3.6 uM incubated for 24 hrs by PI staining based flow cytometry (reference value: 24.6 +/- 1.11 %); assay type: functional
[23] = test system: HeLa; experiment: Induction of apoptosis in human HeLa cells assessed as necrotic cells at 1.8 uM incubated for 24 hrs by PI staining based flow cytometry (reference value: 25.5 %); assay type: functional
[24] = test system: HCT-116; experiment: Induction of apoptosis in human HCT-116 cells assessed as necrotic cells at 0.2 uM incubated for 24 hrs by PI staining based flow cytometry (reference value: 18.9 %); assay type: functional
[25] = test system: HeLa; experiment: Antiproliferative activity against human HeLa cells assessed as cell growth inhibition incubated for 48 hrs by MTT assay; assay type: functional, cell-based
[26] = test system: HeLa; experiment: Induction of cell cycle arrest in human HeLa cells assessed as accumulation at sub-G1 phase at 3.6 uM incubated for 24 hrs by PI staining based flow cytometry (reference value: 1.89 +/- 0.56 %); assay type: functional
[27] = test system: HCT-116; experiment: Cytotoxicity against human HCT-116 cells assessed as cell growth inhibition incubated for 48 hrs by MTT assay; assay type: functional, cell-based; conditions: HCT-116, 48 h
[28] = test system: HeLa; experiment: Induction of apoptosis in human HeLa cells assessed as late apoptotic cells at 0.9 uM incubated for 24 hrs by PI staining based flow cytometry (reference value: 3.85 %); assay type: functional
[29] = AUC (0 to infinity) in Sprague-Dawley rat at 10 mg/kg, po measured for 36 hrs by MRM analysis; assay type: ADME, organism-based; conditions: in vivo
[30] = test system: HCT-116; experiment: Induction of cell cycle arrest in human HCT-116 cells assessed as accumulation at sub-G1 phase at 0.4 uM incubated for 24 hrs by PI staining based flow cytometry (reference value: 2.45 +/- 0.49 %); assay type: functional
[31] = test system: HCT-116; experiment: Induction of cell cycle arrest at G2/M phase in human HCT-116 cells assessed as decrease in p-Cdc2 level at 0.4 uM by Western blot analysis; assay type: functional, cell-based; conditions: time <= 48.0 hrs
[32] = test system: HCT-116; experiment: Induction of apoptosis in human HCT-116 cells assessed as viable cells at 0.8 uM incubated for 24 hrs by PI staining based flow cytometry (reference value: 79.4 %); assay type: functional; conditions: read-out: Activity
[33] = test system: HCT-116; experiment: Induction of cell cycle arrest at G2/M phase in human HCT-116 cells assessed as decrease in cyclin B1 level incubated for 48 hrs by Western blot analysis; assay type: functional, cell-based; conditions: dose <= 0.8 µM
[34] = Toxicity in Balb/c-nu nude mouse xenografted with human HCT-116 cells assessed as toxicity in kidney at 35 to 70 mg/kg/day, po treated for 30 days by H and E staining based analysis; assay type: organism-based; conditions: in vivo, 720 h, dose 35-70 mg/kg/day, time 30 day
[35] = test system: HeLa; experiment: Induction of apoptosis in human HeLa cells assessed as decrease in Bcl-2 level upto 3.6 uM incubated for 24 hrs by Western blot analysis; assay type: functional, cell-based
[36] = test system: HCT-116; experiment: Induction of apoptosis in human HCT-116 cells assessed as viable cells at 0.2 uM incubated for 24 hrs by PI staining based flow cytometry (reference value: 79.4 %); assay type: functional; conditions: read-out: Activity

Cc1cnc(Nc2ccc(S(N)(=O)=O)cc2)nc1Nc1nccs1
Activity [1]: Active | Activity [2]: 0.72% | IC50 [3]: 1010 nM | Activity [4]: 27.3% | viability at 0.4 µM [5]: 54.4% | IC50 [6]: 121 nM | IC50 [7]: 4 nM | Activity [8]: 65.8% | Activity [9]: 88.3% | Activity [10]: Dose-dependent-effect | Activity [11]: Dose-dependent-effect | AUC(0-t) at 36 h [12]: 33.5 ng·h/mL | Activity [13]: 4.8% | IC50 [14]: 22200 nM | IC50 at 48 h [15]: 90100 nM | inhibition [16]: Dose-dependent-effect | Activity [17]: 17.55% | Activity [18]: 16.79% | IC50 [19]: > 30000 nM | IC50 [20]: 3250 nM | Activity [21]: 30.58% | Activity [22]: 44.19% | Activity [23]: 0.22% | Activity [24]: 3.6% | IC50 [25]: 1840 nM | Activity [26]: 19.5% | IC50 [27]: 462 nM | Activity [28]: 5% | AUC(0-inf) [29]: 146 ng·h/mL | Activity [30]: 1.91% | Activity [31]: Time-dependent-effect | viability at 0.8 µM [32]: 52.8% | Activity [33]: Dose-dependent-effect | Activity [34]: Non-toxic | Activity [35]: Active | viability at 0.2 µM [36]: 63.1%
